Laboratory results from a melting point compilation (Tetko et al.; mined from patent text by program, amines drawn as free bases though some values may be those of a salt).

With COC(=O)c1cc(-c2nnnn2C)c(C(=O)OC)s1 the melting point was 149 to 151 °C.
With O=C1Cc2ccccc2C(=O)N1c1ccc(Cl)cc1 the melting point was 178 to 180 °C.
For COc1cc(CCCC2OC(=O)NC2=O)ccc1OCc1coc(CCc2ccccc2)n1 (configuration not stated), the melting point was 122 to 123 °C.
COc1cc2ncc(C#N)c(Nc3cccc(Br)c3)c2cc1OC showed a melting point of 224 to 228 °C.
Compound CCOC(=O)c1ccc(S(=O)(=O)C(C)(C)C)cc1Cl has a melting point of 82.4 to 83 °C.
In the case of CCOC(=O)CCNC(=O)Nc1cc(-c2ccc3cc(NS(C)(=O)=O)ccc3c2)c(OC)c(C(C)(C)C)c1, the melting point is reported as > 300 °C.
Compound CCOC(=O)/C=C/[C@H]1O[C@@H](n2cc(CC)c(=O)[nH]c2=O)C[C@@H]1OC(C)=O has a melting point of 132 to 133 °C.
COc1ccc(NN)c(C)c1 showed a melting point of 105 °C.
O=C1c2ccccc2-c2csc(N3C(=O)c4ccccc4C3=O)c21 gave a melting point of 197 to 199 °C.
Work on CC(=O)OC1CCC2(C)C(=CCC3C2CCC2(C)C(C(C)CO)=CCC32)C1 (configuration not stated) yielded a melting point of 170 to 171 °C.
NC(=O)c1sc(Nc2ccccc2)c2c1CCc1cn[nH]c1-2 gave a melting point of 233 to 234 °C.
With c1ccc2c(c1)ncc1nc(C3CCCCC3)[nH]c12 the melting point was 205 to 206 °C.
Work on c1ccc(Nc2csc(-c3cn[nH]c3)n2)nc1 yielded a melting point of 209 to 210 °C.
With c1ccc(C(OC2CCNCC2)c2ccccc2)cc1 the melting point was 56 °C.
With CC(C)N(CCC(c1ccccc1)c1cc(CO)ccc1OCc1ccccc1)C(C)C (configuration not stated) the melting point was 86.4 °C.
CCOC(=O)NC(=O)CN(C)C(=O)c1c(F)ccc2c(C(F)(F)F)c(OC)ccc12 showed a melting point of 130 to 132 °C.
Work on COc1cc(Nc2nccc(-c3cccnc3)n2)ccc1-n1cnc(C)c1 yielded a melting point of 204 to 206 °C.
COC(=O)CNc1ccc(OC(=O)CC2CCN(c3ccncc3)CC2)cc1 gave a melting point of 120 to 122 °C.
COC(=O)C1=C(C)NC(C)=C(C(=O)OCC2CCCO2)C1c1cccc(Cl)c1Cl (configuration not stated) gave a melting point of 172 to 173 °C.
For COc1cccc(C(=O)CCCN2CCC(O)(c3ccc(Cl)cc3)CC2)c1, the melting point was 127 to 129 °C.
CCOC(=O)c1ncn2c1CN=C(c1ccccc1)c1cc(I)ccc1-2 gave a melting point of 221 to 222 °C.
With Cc1cnc2[nH]c3ccccc3c2c1 the melting point was 270 °C.
CC(=O)/C=C(\C)c1ccc(-c2ccccc2)c(F)c1 showed a melting point of 103 °C.
In the case of Cn1cc(-c2ccccc2)c(=O)c(-c2cccc(O)c2)c1, the melting point is reported as 223 to 225 °C.
In the case of CN1CCN(c2ccc(S(=O)(=O)Oc3c(Cl)cc(Cl)cc3Cl)cc2)C1=O, the melting point is reported as 185 to 187 °C.
For Cc1ccnc(-n2sc3ccccc3c2=O)c1, the melting point was 195 to 196 °C.
Work on S=C1Nc2ccccc2N2CCN(Cc3ccccc3)CCN12 yielded a melting point of 125 to 127 °C.
Work on CC(C)c1cccc(-n2c(C(=O)Nc3ccc4c(ccn4C)c3)cc3cc(OC(F)(F)F)ccc32)c1 yielded a melting point of 164 to 165 °C.
With O=C(NC(=O)c1ccccc1Cl)Nc1ccc(C(F)(F)F)cc1 the melting point was 214 °C.
For CCCCCN(C[C@H]1CC[C@H](CN(CCCCC)C(=O)Nc2ccc(N(C)C)cc2)CC1)C(=O)Nc1ccc(N(C)C)cc1, the melting point was 205 to 208 °C.
Compound COc1ccc(/C=C(\C#N)c2ccc(Cl)c(Cl)c2)cc1OC1CCCC1 has a melting point of 152 to 154 °C.
O=c1c2cccnc2n(-c2cccc(Cl)c2)c2ccsc12 gave a melting point of 264 to 267 °C.
In the case of COC(=O)NCCc1ccc(C(=O)OC)c(S(N)(=O)=O)c1, the melting point is reported as 146 to 149 °C.
COC(=O)c1c(F)cc(OCCNC(=O)C2Cc3ccccc3N2S(=O)(=O)c2ccc(-c3cc(C(F)(F)F)ccc3Cl)cc2)cc1F (configuration not stated) gave a melting point of 78 °C.
Compound CN1C(c2cccnc2)CC(=O)CC1c1cccnc1 (configuration not stated) has a melting point of 103 to 106 °C.
Compound COc1ccc(OC)c(C(=O)CC(CC(=O)c2ccc(Cl)cc2)c2cccc(C(=O)O)c2)c1 (configuration not stated) has a melting point of 164 to 165 °C.
CN(C)c1ccc(NC(=O)N(C[C@H]2CC[C@H](CN(C(=O)Nc3ccc(N(C)C)cc3)C3CCCC3)CC2)C2CCCC2)cc1 showed a melting point of 162 to 165 °C.
Compound NS(=O)(=O)c1cc(C(=O)c2ccc3c(c2)CCC3)ccc1Cl has a melting point of 164 to 166 °C.
With O=S1(=O)N=CN(C2CC2)c2ccc(F)c(F)c21 the melting point was 205 to 206 °C.
Work on CC1=C(/C=C/C(C)=C/C=C\c2ccc(C(=O)O)cc2)C(C)(C)CCC1 yielded a melting point of 179 °C.
In the case of CC(=O)N1CCN(C(=O)Cn2c(-c3ccc(Cl)cc3)nc3cccnc32)CC1, the melting point is reported as 217 to 219 °C.
Work on CCOC(=O)N1CCOC(CN2C(=O)c3ccccc3C2=O)C1 (configuration not stated) yielded a melting point of 113 to 115 °C.
Work on CCOC(=O)CC(=O)CC(=O)c1cccnc1 yielded a melting point of 187 to 189 °C.
Nc1ccc(S(=O)(=O)Nc2ccc(OP(N)(N)=O)cc2)cc1 gave a melting point of 174 to 175 °C.
In the case of COc1ccc(NN=C(Sc2ccc(OC)c(OC)c2)C(C)=O)cc1, the melting point is reported as 138 to 141 °C.
CC(=O)Nc1c(C(N)=O)nnn1Cc1ccccc1Cl showed a melting point of 140 to 142 °C.
C=C(C)Cc1cc(C)c2c(c1O)C(=O)CC2 gave a melting point of 62.5 to 64 °C.
C[Si](C)(C)CCOC(=O)CN1C(=O)[C@@H](N2C(=O)c3ccccc3C2=O)CSC1c1ccccc1 (some centres not stated) gave a melting point of 58 to 60 °C.
CNCCC1=C(C#N)C(c2cccc3nonc23)c2c[nH]nc2N1 (configuration not stated) showed a melting point of 174 °C.
Work on CN(CCO)Cc1cc(NC(=N)c2cccs2)ccc1C1CCCC1 yielded a melting point of 116 to 118 °C.
In the case of Cn1ccnc1SCC(=O)Nc1ccc(-c2ccccc2)cc1, the melting point is reported as 151 to 154 °C.
For Cc1nc(NC(=O)Nc2ccc(N3CCN(C(=O)Nc4ccc(OCCO)cc4C(F)(F)F)CC3)cc2)sc1C, the melting point was 166 to 167 °C.
With O=C(OCc1ccccc1)c1ccc(OC(=O)c2ccc(O)cc2)cc1 the melting point was 137 to 138 °C.
In the case of CN1CCN(Cc2ccc3n2Cc2ccccc2SC3c2ccccc2)CC1 (configuration not stated), the melting point is reported as 161 to 162 °C.
Work on O=C1c2c(F)c(F)c(F)c(F)c2C(=O)N1c1c[nH]c(=O)[nH]c1=O yielded a melting point of 350 to 355 °C.
Compound COc1ccc(C(=O)c2ccc(Br)cc2)c(C)c1F has a melting point of 93 to 95 °C.
CCC(=CC(CSc1nnnn1C)=NO)C(C)[N+](=O)[O-] (configuration not stated) gave a melting point of 83 to 84 °C.
Work on Cc1c(C2(c3ccccc3)CCC(c3ccccc3)(N(C)C)CC2)[nH]c2ccccc12 (configuration not stated) yielded a melting point of 193 to 207 °C.
With COc1cc(-n2nc(C)n(C(F)F)c2=O)c(F)cc1Cl the melting point was 86 to 88 °C.
CCNC(=O)C(=CNc1ccc(I)cc1)C(=O)c1ccccc1Cl showed a melting point of 160 to 162 °C.
COc1ccc(Cn2cccc2C(=O)CC(=O)C(=O)O)cc1 showed a melting point of 167 to 168 °C.
Cc1noc(NS(=O)(=O)c2ccc(N(C)C)cc2)c1C showed a melting point of 152 to 154 °C.
Work on O=C(NCc1cncs1)c1ccnc(N2CCN(Cc3ccc(F)cc3)C2=O)c1 yielded a melting point of 148 to 150 °C.
For O=c1[nH]c2c(Cc3nnn[nH]3)c3ccccc3n2c2ccccc12, the melting point was 262 to 265 °C.
Compound COCCOc1cc(OC)c2c(=O)[nH]c(-c3ccnc(C)c3)nc2c1 has a melting point of 260 to 262 °C.
O=C(N[C@H]1CC[C@H](CCN2CCN(c3nccc4c3OCC4)CC2)CC1)c1cnc(N2CCOCC2)cn1 showed a melting point of 200 °C.
With CCCCCCCCCCCCCCCCCC(=O)c1ccc(C2=NC(C)(C)CO2)cc1 the melting point was 73 to 76 °C.
Work on O=C(c1ccc(F)cc1)c1ccc(Br)nc1 yielded a melting point of 97 to 98 °C.
CCOC(=O)C(N)C=C(CCCCCCN)CP(=O)(O)O (configuration not stated) showed a melting point of 194 °C.
CN1CCC(C2(O)c3ccccc3Oc3ccc(Cl)cc32)CC1 (configuration not stated) showed a melting point of 206 to 208 °C.
Work on CCOC(=O)Cn1c2ccc(Cl)ccc-2c(C(=O)OCC)c1=O yielded a melting point of 177 to 179 °C.
Work on CCC(c1ccccc1)(c1ccccc1)c1ccnc(C(=O)O)c1 yielded a melting point of 191 to 193 °C.
